# Measurements reported in patent publication US7932270B2 (Cytokinetics, Inc., priority 2006, dated 2011).
# Molecular target: T1, chicken gizzard smooth muscle myosin subfragment-1 chemically crosslinked to cardiac or skeletal actin (Gallus gallus, UniProt P10587)
# T1 construct: chicken gizzard smooth muscle myosin subfragment-1; from tissue; host or cells: chicken gizzard
# Test: Smooth muscle myosin ATPase dose response assay (pyruvate kinase/horseradish peroxidase/pyruvate oxidase-coupled, amplex red fluorescence)
# Assay type: biochemical
# Settings: read-out: IC50 Arithmetic Mean
# In short: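 ATPase monitored by amplex red fluorescence (ex 480/em 615 nm) via pyruvate oxidase/HRP coupling, pH 7.00, ATP 0.15 mM. Enzyme: smooth muscle S1-actin crosslinked conjugate, amount set empirically by titration. Dose-response fitted with 4-parameter Hill equation for IC50.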
# T1 sequence (P02607 2-151): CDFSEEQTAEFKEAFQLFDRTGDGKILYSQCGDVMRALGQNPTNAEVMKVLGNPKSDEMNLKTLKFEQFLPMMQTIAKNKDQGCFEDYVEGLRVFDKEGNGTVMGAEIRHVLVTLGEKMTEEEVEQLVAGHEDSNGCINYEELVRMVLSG
# T1 sequence (P10587 84-789): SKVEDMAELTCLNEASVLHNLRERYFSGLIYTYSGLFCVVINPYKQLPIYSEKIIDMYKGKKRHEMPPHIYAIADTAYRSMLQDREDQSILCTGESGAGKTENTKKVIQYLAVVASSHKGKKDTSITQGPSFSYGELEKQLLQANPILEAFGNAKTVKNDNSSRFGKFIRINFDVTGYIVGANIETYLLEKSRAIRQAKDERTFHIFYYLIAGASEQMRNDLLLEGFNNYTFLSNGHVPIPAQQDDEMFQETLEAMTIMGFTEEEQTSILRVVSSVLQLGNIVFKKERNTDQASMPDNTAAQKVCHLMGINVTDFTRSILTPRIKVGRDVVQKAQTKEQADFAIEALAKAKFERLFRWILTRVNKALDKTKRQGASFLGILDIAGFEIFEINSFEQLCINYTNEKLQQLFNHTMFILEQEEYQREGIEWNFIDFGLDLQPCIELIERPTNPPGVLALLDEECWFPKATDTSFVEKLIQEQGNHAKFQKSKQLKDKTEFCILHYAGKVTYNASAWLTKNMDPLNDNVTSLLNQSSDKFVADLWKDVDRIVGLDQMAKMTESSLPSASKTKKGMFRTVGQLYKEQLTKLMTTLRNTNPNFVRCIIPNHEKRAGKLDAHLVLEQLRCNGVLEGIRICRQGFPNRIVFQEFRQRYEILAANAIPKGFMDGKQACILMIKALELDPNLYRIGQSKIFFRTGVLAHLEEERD
row,IC50,SMILES
1,568 nM,COC(=O)[C@H](N)CNC(=O)c1cc(F)c(-c2cnn(C)c2)nc1NCCc1cccc(F)c1 [methyl (2R)-2-amino-3-[(5-fluoro-2-{[2-(3-fluorophenyl)ethyl]amino}-6-(1-methylpyrazol-4-yl)(3-pyridyl))carbonylamino]propanoate]
2,122 nM,C[C@H](CNC(=O)c1cc(F)c(-c2cn[nH]c2)nc1NCCc1cccc(F)c1)NC(=O)CN
3,994 nM,N#Cc1ccccc1-c1ccc(C(=O)NCCCN)c(NCCc2cccc(F)c2)n1 [N-(3-aminopropyl)(6-(2-cyanophenyl)-2-{[2-(3-fluorophenyl)ethyl]amino}(3-pyridyl))carboxamide]
4,2390 nM,CN1CCN(C(=O)CCN)[C@@H](CNC(=O)c2ccc(-c3ccccc3C#N)nc2NCCc2cccc(F)c2)C1 [N-{[(2S)-1-(3-aminopropanoyl)-4-methylpiperazin-2-yl]methyl}(6-(2-cyanophenyl)-2-{[2-(3-fluorophenyl)ethyl]amino}(3-pyridyl))carboxamide]
5,98 nM,O=Cc1cc(-c2ccc(C(=O)NCc3cccnc3)c(NCCc3cccc(F)c3)n2)cs1 [(2-{[2-(3-fluorophenyl)ethyl]amino}-6-(5-formyl(3-thienyl))(3-pyridyl))-N-(3-pyridylmethyl)carboxamide]
6,534 nM,COC(=O)CCC(=O)N1CCC[C@@H]1CNC(=O)c1cc(F)c(-c2cnn(C)c2)nc1NCCc1cccc(F)c1 [methyl 4-((2R)-2-{[(5-fluoro-2-{[2-(3-fluorophenyl)ethyl]amino}-6-(1-methylpyrazol-4-yl)(3-pyridyl))carbonylamino]methyl}pyrrolidinyl)-4-oxobutanoate]
7,8750 nM,O=Cc1ccccc1-c1ccc(C(=O)NCc2cccnc2)c(NCCc2ccccn2)n1 [{6-(2-formylphenyl)-2-[(2-(2-pyridyl)ethyl)amino](3-pyridyl)}-N-(3-pyridylmethyl)carboxamide]
8,160 nM,Cn1cc(-c2nc(NCCc3cccc(F)c3)c(C(=O)NC[C@H]3CCC(=O)N3CCCN)cc2Cl)cn1 [N-{[(2R)-1-(3-aminopropyl)-5-oxopyrrolidin-2-yl]methyl}(5-chloro-2-{[2-(3-fluorophenyl)ethyl]amino}-6-(1-methylpyrazol-4-yl)(3-pyridyl))carboxamide]
9,71 nM,N#Cc1ccccc1-c1ccc(C(=O)NC[C@H]2CCCN2S(=O)(=O)CCN)c(NCCc2cccc(F)c2)n1 [N-({(2R)-1-[(2-aminoethyl)sulfonyl]pyrrolidin-2-yl}methyl)(6-(2-cyanophenyl)-2-{[2-(3-fluorophenyl)ethyl]amino}(3-pyridyl))carboxamide]
10,6 nM,N#Cc1ccccc1-c1ccc(C(=O)NCc2cccnc2CCN)c(NCCc2cccc(F)c2)n1 [N-{[2-(2-aminoethyl)(3-pyridyl)]methyl}(6-(2-cyanophenyl)-2-{[2-(3-fluorophenyl)ethyl]amino}(3-pyridyl))carboxamide]
11,2320 nM,CNC(=O)[C@@H](N)CNC(=O)c1ccc(-c2ccccc2C#N)nc1NCCc1cccc(F)c1 [(2S)-2-amino-3-[(6-(2-cyanophenyl)-2-{[2-(3-fluorophenyl)ethyl]amino}(3-pyridyl))carbonylamino]-N-methylpropanamide]
12,1610 nM,O=C(NCc1cccnc1)c1ccc(-c2ccccc2)nc1NCCc1ccc(F)cc1 [(2-{[2-(4-fluorophenyl)ethyl]amino}-6-phenyl(3-pyridyl))-N-(3-pyridylmethyl)carboxamide]
13,758 nM,N#Cc1ccccc1-c1ccc(C(=O)NCC2CCCN2CCN)c(NCCc2cccc(F)c2)n1 (stereo not shown) [N-{[1-(2-aminoethyl)pyrrolidin-2-yl]methyl}(6-(2-cyanophenyl)-2-{[2-(3-fluorophenyl)ethyl]amino}(3-pyridyl))carboxamide]
14,21 nM,N#Cc1ccccc1-c1ccc(C(=O)NCc2ccc(N)cn2)c(NCCc2cccc(F)c2)n1 [N-[(5-amino(2-pyridyl))methyl](6-(2-cyanophenyl)-2-{[2-(3-fluorophenyl)ethyl]amino}(3-pyridyl))carboxamide]
15,280 nM,N#Cc1ccc(-c2ccc(C(=O)NCc3cccnc3)c(NCCc3cccc(F)c3)n2)s1 [(6-(5-cyano(2-thienyl))-2-{[2-(3-fluorophenyl)ethyl]amino}(3-pyridyl))-N-(3-pyridylmethyl)carboxamide]
16,157 nM,O=C(NCc1cccnc1)c1ccc(-c2cccc(F)c2)nc1NCCc1cccc(F)c1 [(6-(3-fluorophenyl)-2-{[2-(3-fluorophenyl)ethyl]amino}(3-pyridyl))-N-(3-pyridylmethyl)carboxamide]
17,3960 nM,Cn1cc(-c2nc(NCCc3cccc(F)c3)c(C(=O)NCCCN)cc2F)cn1 [N-(3-aminopropyl)(5-fluoro-2-{[2-(3-fluorophenyl)ethyl]amino}-6-(1-methylpyrazol-4-yl)(3-pyridyl))carboxamide]
18,31 nM,Cn1nccc1CNC(=O)c1ccc(-c2ccccc2C#N)nc1NCCc1cccc(F)c1 [(6-(2-cyanophenyl)-2-{[2-(3-fluorophenyl)ethyl]amino}(3-pyridyl))-N-[(1-methylpyrazol-5-yl)methyl]carboxamide]
19,1120 nM,CNC(=O)[C@H](CO)NC(=O)c1ccc(-c2ccccc2C#N)nc1NCCc1cccc(F)c1 [(2S)-2-[(6-(2-cyanophenyl)-2-{[2-(3-fluorophenyl)ethyl]amino}(3-pyridyl))carbonylamino]-3-hydroxy-N-methylpropanamide]
20,203 nM,N#Cc1ccccc1-c1ccc(C(=O)NCC2CCN(C(=O)CN)C2)c(NCCc2cccc(F)c2)n1 (stereo not shown) [N-{[1-(2-aminoacetyl)pyrrolidin-3-yl]methyl}(6-(2-cyanophenyl)-2-{[2-(3-fluorophenyl)ethyl]amino}(3-pyridyl))carboxamide]
21,3960 nM,"Cc1ccc(-c2ccc(C(=O)NCc3cccnc3)c(NCCc3ccccn3)n2)c(C)c1 [{6-(2,4-dimethylphenyl)-2-[(2-(2-pyridyl)ethyl)amino](3-pyridyl)}-N-(3-pyridylmethyl)carboxamide]"
22,13200 nM,N#Cc1ccccc1-c1ccc(CC(=O)NCc2cccnc2)c(NCCc2cccc(F)c2)n1 [2-(6-(2-cyanophenyl)-2-{[2-(3-fluorophenyl)ethyl]amino}(3-pyridyl))-N-(3-pyridylmethyl)acetamide]
23,274 nM,"N#Cc1ccccc1-c1ccc(C(=O)NC[C@H]2CCN2C(=O)[C@@H](N)CCCN)c(NCCc2cccc(F)c2)n1 [N-{[(2R)-1-((2S)-2,5-diaminopentanoyl)azetidin-2-yl]methyl}(6-(2-cyanophenyl)-2-{[2-(3-fluorophenyl)ethyl]amino}(3-pyridyl))carboxamide]"
24,274 nM,CNC(=O)[C@@H](CN)NC(=O)c1ccc(-c2ccccc2C#N)nc1NCCc1cccc(F)c1 [(2R)-3-amino-2-[(6-(2-cyanophenyl)-2-{[2-(3-fluorophenyl)ethyl]amino}(3-pyridyl))carbonylamino]-N-methylpropanamide]
25,12600 nM,N#Cc1ccccc1-c1ccc(C(=O)NC[C@@H](CN)NC(=O)CN)c(NCCc2cccc(F)c2)n1 [N-((1R)-2-amino-1-{[(6-(2-cyanophenyl)-2-{[2-(3-fluorophenyl)ethyl]amino}(3-pyridyl))carbonylamino]methyl}ethyl)-2-aminoacetamide]
26,707 nM,NCc1ncccc1CNC(=O)c1ccc(-c2cnn(CCO)c2)nc1NCCc1cccc(F)c1 [N-{[2-(aminomethyl)(3-pyridyl)]methyl}(2-{[2-(3-fluorophenyl)ethyl]amino}-6-[1-(2-hydroxyethyl)pyrazol-4-yl](3-pyridyl))carboxamide]
27,41 nM,O=C(NCc1cccnc1)c1ccc(-c2ccc(CO)s2)nc1NCCc1cccc(F)c1 [(2-{[2-(3-fluorophenyl)ethyl]amino}-6-[5-(hydroxymethyl)(2-thienyl)](3-pyridyl))-N-(3-pyridylmethyl)carboxamide]
28,6970 nM,CN1CCN(C(=O)CN)C[C@@H]1CNC(=O)c1ccc(-c2ccccc2C#N)nc1NCCc1cccc(F)c1 [N-{[(2S)-4-(2-aminoacetyl)-1-methylpiperazin-2-yl]methyl}(6-(2-cyanophenyl)-2-{[2-(3-fluorophenyl)ethyl]amino}(3-pyridyl))carboxamide]
29,30200 nM,CN(C)c1ccc(CNC(=O)c2ccc(-c3ccccc3C#N)nc2NCCc2cccc(F)c2)cn1 [N-{[6-(dimethylamino)(3-pyridyl)]methyl}(6-(2-cyanophenyl)-2-{[2-(3-fluorophenyl)ethyl]amino}(3-pyridyl))carboxamide]
30,72 nM,N#Cc1ccccc1-c1ccc(C(=O)NCc2cccnc2Cl)c(NCCc2cccc(F)c2)n1 [N-[(2-chloro(3-pyridyl))methyl](6-(2-cyanophenyl)-2-{[2-(3-fluorophenyl)ethyl]amino}(3-pyridyl))carboxamide]

row,SMILES,IC50
1,COP(=O)(OC)OCC(=O)N1CC[C@@H]1CNC(=O)c1cc(F)c(-c2cnn(C)c2)nc1NCCc1cccc(F)c1 [2-((2R)-2-{[(5-fluoro-2-{[2-(3-fluorophenyl)ethyl]amino}-6-(1-methylpyrazol-4-yl)(3-pyridyl))carbonylamino]methyl}azetidinyl)-2-oxoethyl dimethyl phosphate],400 nM
2,CC(C)(C)OC(=O)NCCCN1CCC(CNC(=O)c2ccc(-c3ccccc3C#N)nc2NCCc2cccc(F)c2)C1=O (stereo not shown) [N-[(1-{3-[(tert-butoxy)carbonylamino]propyl}-2-oxopyrrolidin-3-yl)methyl](6-(2-cyanophenyl)-2-{[2-(3-fluorophenyl)ethyl]amino}(3-pyridyl))carboxamide],104 nM
3,CC(C)(C)OC(=O)NCC(=O)N1CCC[C@@H]1CNC(=O)c1cc(F)c(-c2cn[nH]c2)nc1NCCc1cccc(F)c1 [N-[((2R)-1-{2-[(tert-butoxy)carbonylamino]acetyl}pyrrolidin-2-yl)methyl](5-fluoro-2-{[2-(3-fluorophenyl)ethyl]amino}-6-pyrazol-4-yl(3-pyridyl))carboxamide],1080 nM
4,CC(C)(C)OC(=O)NCCN1CCC[C@@H]1CNC(=O)c1ccc(-c2ccccc2C#N)nc1NCCc1cccc(F)c1 [N-[((2R)-1-{2-[(tert-butoxy)carbonylamino]ethyl}pyrrolidin-2-yl)methyl](6-(2-cyanophenyl)-2-{[2-(3-fluorophenyl)ethyl]amino}(3-pyridyl))carboxamide],3690 nM
